Reference: BindingDB's records for doi:10.7270/Q2PR7TFT (Burnham Center For Chemical Genomics, 2010)

Biological target: T1, Type-1 angiotensin II receptor (Homo sapiens, UniProt P30556)
T1 sequence (P30556 whole entry): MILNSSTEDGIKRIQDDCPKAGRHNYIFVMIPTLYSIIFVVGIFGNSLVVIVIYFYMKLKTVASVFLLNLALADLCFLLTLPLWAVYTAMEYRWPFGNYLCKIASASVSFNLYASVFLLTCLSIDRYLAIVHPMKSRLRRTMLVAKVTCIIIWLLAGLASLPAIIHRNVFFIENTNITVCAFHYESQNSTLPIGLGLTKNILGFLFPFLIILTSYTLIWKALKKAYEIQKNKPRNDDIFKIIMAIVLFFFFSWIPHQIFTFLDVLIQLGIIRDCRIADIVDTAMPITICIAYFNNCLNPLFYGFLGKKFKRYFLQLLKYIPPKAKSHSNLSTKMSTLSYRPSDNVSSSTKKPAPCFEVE
Experiment: AT1 receptor agonists, dose response, selectivity assay for APJ receptor agonist project, cell-based, uHTS hits (AID 488865)

EC50, > 100 µM:
COC(=O)C1C(Cn2cnc3ccccc32)=NC(=O)NC1c1cc(C)ccc1C (centres undefined) [methyl 6-(benzimidazol-1-ylmethyl)-4-(2,5-dimethylphenyl)-2-oxo-3,4-dihydro-1H-pyrimidine-5-carboxylate]
COc1ccc(CN=Nc2cc(C)nc3ccc(OC)cc23)c(OC)c1
CCCCCCC1=Cc2c/c(=C3/NN=C(c4cc(OC)c(OC)c(OC)c4)O3)c(=O)oc2=CC1=O
CCOC(=O)C1C(Cn2cnc3ccccc32)=NC(=O)NC1c1cc(C)ccc1C (centres undefined) [ethyl 6-(benzimidazol-1-ylmethyl)-4-(2,5-dimethylphenyl)-2-oxidanylidene-3,4-dihydro-1H-pyrimidine-5-carboxylate]
